# In US11180452B2, “Methods and compositions for selectively inhibiting pathogenic microbes” (priority 2019, dated 2021):
# Like-named read-outs stand apart in the source and are kept apart here.
# Columns and labels:
# Bacillus subtilis = Bacillus subtilis MIC / MBC; type: cell-based; conditions: for MIC: Bacillus subtilis; for MBC: Bacillus subtilis NRRL: B-571, minimum bactericidal concentration
# [1] = test system: Francisella tularensis subsp. Holarctica Strain LVSR NR-597; experiment: microbe, parasite or virus in culture; type: cell-based
# [2] = test system: Burkholderia thailandensis Brett et al ATCC: 700388; experiment: microbe, parasite or virus in culture; type: cell-based
# NoSpin HepaRG cells = experiment: HepaRG cytotoxicity, MTT assay EC50; type: cell-based, human; conditions: Homo sapiens, HepaRG; cytotoxicity EC50, Table 9
# Method: Additionally, the antimicrobial compounds were analyzed for cytotoxicity. […] We utilized the standard MTT assay (Promega CellTiter 96) and GraphPad Prism 7 software to determine EC50 values for each analogue. Briefly, 20,000 HepG2 cells in 200 μl of the ATCC recommended media were seeded in each well of a 96-well plate with a moisture barrier created in the outermost wells. The cells were allowed to attach overnight at 37° C., and then observed under phase contrast microscopy for proper morphological characteristics. […] Once incubations were complete, the spectrophotometric absorbance of the samples was measured at a wavelength of 595 nm. […] For the HepaRG assay, NoSpin HepaRG™ cells (Lonza, cat #NSHPRG) were thawed and plated with 20,000 cells per well. They were allowed to attach for 4 h (optimal DME profile per Lonza's testing) before dosing following the identical protocol as above.
# Candida glabrata = Candida glabrata MIC / MFC; type: cell-based; conditions: Nakaseomyces glabratus
# Bacillus thuringiensis = type: cell-based; conditions: for MIC: Bacillus thuringiensis
# C. albicans = experiment: Candida albicans MIC / MFC; type: cell-based
# Trichophyton rubrum = experiment: MIC against Trichophyton rubrum; type: cell-based; conditions: Trichophyton rubrum Castellani Sabouraud ATCC: 28188; read-out: MIC
# [3] = Bacillus subtilis (Ehrenberg 1835) Cohn 1872 NRRL: B-571, read-out: MIC
# [4] = Candida glabrata #584 (Table 2), read-out: MIC
# [5] = Bacillus thuringiensis Berliner ATCC: 10792
# [6] = Bacillus thuringiensis Berliner ATCC: 10792, read-out: MIC
# [7] = C. albicans strain #761, read-out: MFC
# [8] = C. albicans strain #761, read-out: MIC
# [9] = C. albicans strain #762, read-out: MFC
# [10] = C. albicans strain #762, read-out: MIC
# [11] = C. glabrata strain #325, read-out: MIC
# [12] = C. glabrata strain #584 (Table 7), read-out: MIC
# [13] = strain B-1985, read-out: Bacillus subtilis MIC
# [14] = strain B-3665, read-out: Bacillus subtilis MIC
# [15] = strain B-14322, read-out: Bacillus subtilis MIC
# [16] = strain B-41090, read-out: Bacillus subtilis MIC
# [17] = strain B-41581, read-out: Bacillus subtilis MIC
# [18] = strain BD-594, read-out: Bacillus subtilis MIC
# [19] = Candida glabrata #584 (Table 2), minimum fungicidal concentration, read-out: MFC
Compound,MIC (Bacillus subtilis; [3]) [mg/L],MIC [1] [mg/L],MBC [2] [mg/L],MIC [2] [mg/L],EC50 (NoSpin HepaRG cells) [mg/L],MIC (Candida glabrata; [4]) [mg/L],MBC (Bacillus subtilis) [mg/L],MBC (Bacillus thuringiensis; [5]) [mg/L],MIC (Bacillus thuringiensis; [6]) [mg/L],MIC (Trichophyton rubrum) [mg/L],further results
"FC(F)(F)c1ccc2[nH]cc(Sc3ccccc3C(F)(F)F)c2c1 [Compound 177F, 5-(trifluoromethyl)-3-((2-(trifluoromethyl)phenyl)thio)-1H-indole]",1.56,1.56,> 50,> 50,29.8,50,,,,,
"FC(F)(F)c1ccc2[nH]cc(Sc3ccccc3Br)c2c1 [Compound 174AX, 3-((2-bromophenyl)thio)-5-(trifluoromethyl)-1H-indole]",0.5,1,,,,12.5,8,2,1,,MFC (C. albicans; [7]): 50 mg/L; MIC (C. albicans; [8]): 12.5 mg/L; MFC (C. albicans; [9]): 12.5 mg/L; MIC (C. albicans; [10]): 6.25 mg/L; MIC (Candida glabrata; [11]): > 50 mg/L; MIC (Candida glabrata; [12]): 12.5 mg/L
"Brc1ccc(Sc2c[nH]c3cc(Br)c(Br)cc23)cc1 [Compound 174AB, 5,6-dibromo-3-((4-bromophenyl)thio)-1H-indole]",4,4,,> 50,,3.13,16,8,2,,MIC (Bacillus subtilis; [13]): 4 mg/L; MIC (Bacillus subtilis; [14]): 2 mg/L; MIC (Bacillus subtilis; [15]): 2 mg/L; MIC (Bacillus subtilis; [16]): 4 mg/L; MIC (Bacillus subtilis; [17]): 2 mg/L; MIC (Bacillus subtilis; [18]): 4 mg/L; MIC (Bacillus thuringiensis; strain B-1596): 4 mg/L; MIC (C. albicans; [8]): > 50 mg/L; MIC (C. albicans; [10]): > 50 mg/L; MIC (Candida glabrata; [11]): > 50 mg/L; MIC (Candida glabrata; [12]): 3.13 mg/L
"OCc1[nH]c2ccc(Br)cc2c1Sc1ccccc1Br [Compound 177H, (5-bromo-3-((2-bromophenyl)thio)-1H-indol-2-yl)methanol]",1.56,3.13,> 50,> 50,31.8,50,,,,,
"Clc1ccc(Sc2c[nH]c3ccc(Br)cc23)cc1Cl [Compound 174W, 5-bromo-3-((3,4-dichlorophenyl)thio)-1H-indole]",1.25,,,> 50,,25,> 10,5,1.25,1.16,MIC (C. albicans; [8]): > 50 mg/L; MIC (C. albicans; [10]): > 50 mg/L; MIC (Candida glabrata; [11]): > 50 mg/L; MIC (Candida glabrata; [12]): 25 mg/L
"[O-][S+](c1ccc(Br)cc1)c1c[nH]c2ccc(Br)cc12 (stereo not drawn) [Compound 172I, 5-bromo-3-((4-bromophenyl)sulfinyl)-1H-indole]",10,20,,,,> 40,10,40,10,9.92,
"Fc1ccccc1Sc1c[nH]c2ccc(C(F)(F)F)cc12 [Compound 177D, 3-((2-fluorophenyl)thio)-5-(trifluoromethyl)-1H-indole]",1.56,0.78,> 50,> 50,27.1,25,,,,,
"O=S(=O)(c1ccc(Br)cc1)c1c[nH]c2ccc(Br)cc12 [Compound 172J, 5-bromo-3-((4-bromophenyl)sulfonyl)-1H-indole]",3.13,6.25,,> 50,,> 50,6.25,3.13,1.56,10.3,
"Brc1ccc(Sc2[nH]c3ccccc3c2Sc2ccc(Br)cc2)cc1 [Compound 156P, 2,3-bis((4-bromophenyl)thio)-1H-indole]",12.5,> 50,,,,> 50,> 50,> 50,3.13,6.11,
"CCc1ccccc1Sc1c(CO)[nH]c2ccc(C(F)(F)F)cc12 [Compound 177I, (3-((2-ethylphenyl)thio)-5-(trifluoromethyl)-1H-indol-2-yl)methanol]",3.13,3.13,> 50,> 50,31.3,> 50,,,,,
"Clc1ccc(Sc2c[nH]c3ccc(Br)cc23)c(Cl)c1 [Compound 174V, 5-bromo-3-((2,4-dichlorophenyl)thio)-1H-indole]",1.25,,,> 50,24.8,3.13,2.5,2.5,1.25,0.58,MFC (Candida glabrata; [19]): 12.5 mg/L
"Fc1ccc(Sc2c[nH]c3ccc(Br)cc23)cc1 [Compound 174P, 5-bromo-3-((4-fluorophenyl)thio)-1H-indole]",1.56,,,> 50,38.3,3.13,3.13,> 50,1.56,2.01,MFC (Candida glabrata; [19]): > 50 mg/L
"Oc1ccc(Sc2c[nH]c3ccc(C(F)(F)F)cc23)cc1 [Compound 177B, 4-((5-(trifluoromethyl)-1H-indol-3-yl)thio)phenol]",1.56,3.13,> 50,25,27.7,> 50,,,,,
"CCc1ccccc1Sc1c[nH]c2ccc(C(F)(F)F)cc12 [Compound 177G, 3-((2-ethylphenyl)thio)-5-(trifluoromethyl)-1H-indole]",1.56,0.78,> 50,> 50,29.5,> 50,,,,,
"Fc1ccc2[nH]cc(Sc3ccccc3Br)c2c1 [Compound 177E, 3-((2-bromophenyl)thio)-5-fluoro-1H-indole]",1.56,0.78,> 50,> 50,31.6,25,,,,,
"Brc1ccc(Sc2c[nH]c3c(Br)cccc23)cc1 [Compound 174H, 7-bromo-3-((4-bromophenyl)thio)-1H-indole]",3.13,3.13,,> 50,,12.5,> 50,12.5,6.25,2.38,
"Brc1ccc(Sc2c[nH]c3cc(Br)cc(Br)c23)cc1 [Compound 174AE, 4,6-dibromo-3-((4-bromophenyl)thio)-1H-indole]",2,4,,> 50,,25,4,> 50,2,,"MFC (C. albicans; [7]): > 50 mg/L; MIC (C. albicans; [8]): 50 mg/L; MFC (C. albicans; [9]): 25 mg/L; MIC (C. albicans; [10]): 6.25 mg/L; MFC (Candida glabrata; C. glabrata strain #325, read-out: MFC): > 50 mg/L; MIC (Candida glabrata; [11]): 12.5 mg/L; MIC (Candida glabrata; [12]): 25 mg/L"
"Brc1ccc2[nH]cc(Sc3c[nH]c4ccccc34)c2c1 [Compound 174AL, 3-((1H-indol-3-yl)thio)-5-bromo-1H-indole]",,,,> 50,26.1,,,> 50,,,
"Clc1ccc(Sc2c[nH]c3ccc(Br)cc23)cc1 [Compound 174J, 5-bromo-3-((4-chlorophenyl)thio)-1H-indole]",1.56,,,> 50,25.3,6.25,3.13,1.56,1.56,1.05,MFC (Candida glabrata; [19]): > 50 mg/L
"Brc1ccc(Sc2c[nH]c3ccc(Br)cc23)cc1 [Compound 172D, 5-bromo-3-((4-bromophenyl)thio)-1H-indole]",1.25,1.25,> 150,100,,> 50,5,10,1.25,1.18,"MIC (Bacillus subtilis; strain B-571 (Table 4), read-out: Bacillus subtilis MIC): 1.25 mg/L; MIC (Bacillus subtilis; [13]): 1.25 mg/L; MIC (Bacillus subtilis; [14]): 1.25 mg/L; MIC (Bacillus subtilis; [15]): 1.25 mg/L; MIC (Bacillus subtilis; [16]): 2.5 mg/L; MIC (Bacillus subtilis; [17]): 1.25 mg/L; MIC (Bacillus subtilis; [18]): 2.5 mg/L; MIC (Bacillus thuringiensis; ATCC10792, […]): 1.25 mg/L; MIC (Bacillus thuringiensis; strain B-1596): 2.5 mg/L"
"Fc1ccc2c(Sc3ccc(Br)cc3)c[nH]c2c1 [Compound 172A, 3-((4-bromophenyl)thio)-6-fluoro-1H-indole]",1.56,0.78,,> 50,,1.56,> 50,1.56,1.56,9.52,MFC (C. albicans; C. albicans strain #761): 12.5 mg/L; MIC (C. albicans; C. albicans strain #761): 3.13 mg/L; MFC (C. albicans; C. albicans strain #762): 6.25 mg/L; MIC (C. albicans; C. albicans strain #762): 1.56 mg/L; MFC (Candida glabrata; C. glabrata strain #325): 12.5 mg/L; MIC (Candida glabrata; C. glabrata strain #325): 6.25 mg/L; MFC (Candida glabrata; [19]): 3.13 mg/L
"Brc1ccc(Sc2c[nH]c3ccccc23)cc1 [Compound 174U, 3-((4-bromophenyl)thio)-1H-indole]",> 50,1.56,,> 50,,> 50,> 10,12.5,12.5,0.95,
